# Experimental data published in PMC9718554, “Discovery of a fragment hit compound targeting D-Ala:D-Ala ligase of bacterial peptidoglycan biosynthesis” (Journal of Enzyme Inhibition and Medicinal Chemistry, 2022).
# Read-outs that look alike come from different tables or passages of the source.
# Experiments:
# [1] = Solubility at tested concentrations in the fragment library screening; format: physicochemical
# Description: (§1) Supplement IENZ_A_2149745_SM2502.zip/DDlB_CDR05_SI_20221103.xlsx, sheet "Fragment library screening" | column: Solubility at tested concentrations
# [2] = target: T1, E. coli DdlB enzyme (D-alanine:D-alanine ligase) (Escherichia coli, UniProt P07862); experiment: biochemical; details: read-out: DdlB RA; for remaining activity at 1800 µM: tested concentration 1.8 mM; for remaining activity at 2000 µM: tested concentration 2.0 mM; for remaining activity at 1700 µM: tested concentration 1.7 mM; for remaining activity at 2200 µM: tested concentration 2.2 mM; for remaining activity at 2100 µM: tested concentration 2.1 mM; for remaining activity at 2300 µM: tested concentration 2.3 mM; for remaining activity at 1900 µM: tested concentration 1.9 mM
# T1 construct: made in house; host or cells: E. coli
# [3] = Solubility at tested concentrations (fragment library screening); format: physicochemical
# Description: as §1
# [4] = at the Tested concentration [mM]
structure (smiles),measurement,setting,value
Cc1cc(C)c2ccc(/C=N/O)nc2c1O [Compound 0422-0035],Solubility at tested concentrations,[1]; [4],not soluble
O=C1CSC(c2ccccc2)N1CCc1ccccc1 (stereo not shown) [Compound 1410-0151],Solubility at tested concentrations,[1]; tested concentration 1.8 mM,not soluble
same,remaining activity at 1800 µM,[2],134%
O=C1CSC(c2ccccc2)N1c1ccccc1 (stereo not shown) [Compound 2339-2195],Solubility at tested concentrations,[1]; tested concentration 2.0 mM,not soluble
same,remaining activity at 2000 µM,[2],103%
Cc1cccc2c(O)c(C(=O)O)cnc12 [Compound 4491-1619],Solubility at tested concentrations,[1]; [4],not soluble
Cc1ccc(-c2csc(NC(=O)CO)n2)cc1 [Compound 8005-2972],Solubility at tested concentrations,[3]; tested concentration 2.0 mM,not soluble
same,remaining activity at 2000 µM,[2]; residual activity,88%
O=C(O)c1ccc(N2Cc3ccccc3C2)cc1O [Compound 8005-9285],Solubility at tested concentrations,[3]; tested concentration 2.0 mM,not soluble
same,remaining activity at 2000 µM,[2]; residual activity,61%
O=C(N/N=C/c1ccc2cccc(O)c2n1)c1ccco1 [Compound 8006-5465],Solubility at tested concentrations,[3]; tested concentration 1.8 mM,not soluble
same,remaining activity at 1800 µM,[2]; residual activity,72%
O=C(N/N=C/c1ccc2cccc(O)c2n1)c1ccncc1 [Compound 8006-6830],Solubility at tested concentrations,[3]; tested concentration 1.7 mM,not soluble
same,remaining activity at 1700 µM,[2]; residual activity,71%
Nc1cc(Br)cc2cccnc12 [Compound 8009-3726],Solubility at tested concentrations,[3]; tested concentration 2.2 mM,not soluble
same,remaining activity at 2200 µM,[2],89%
Cc1c(Cl)ccc(S(N)(=O)=O)c1Cl [Compound 8011-1291],Solubility at tested concentrations,[3]; tested concentration 2.1 mM,not soluble
same,remaining activity at 2100 µM,[2],69%
O=[N+]([O-])c1cc(Cl)c2cccnc2c1O [Compound 8011-4676],Solubility at tested concentrations,[3]; tested concentration 2.2 mM,not soluble
same,remaining activity at 2200 µM,[2]; residual activity,49%
Cc1cc(C)c2c(=O)[nH]n(C3CCCCCC3)c2n1 [Compound 8016-0079],Solubility at tested concentrations,[3]; tested concentration 2.3 mM,not soluble
same,remaining activity at 2300 µM,[2],81%
O=[N+]([O-])c1cc(Cl)c(O)c2ncccc12 [Compound 8017-0599],Solubility at tested concentrations,[3]; tested concentration 2.2 mM,not soluble
same,remaining activity at 2200 µM,[2]; residual activity,55%
COc1cccc2c1ncc1c(=O)n3cccc(O)c3nc12 [Compound 8018-0164],Solubility at tested concentrations,[3]; tested concentration 1.7 mM,not soluble
same,remaining activity at 1700 µM,[2],72%
COc1ccc(-c2ncc(C(=O)O)c(=O)[nH]2)cc1OC [Compound 8020-2710],Solubility at tested concentrations,[3]; tested concentration 1.8 mM,not soluble
same,remaining activity at 1800 µM,[2]; residual activity,91%
COc1ccc(Cc2ccc(F)cc2)cc1B(O)O [Compound 8020-3675],Solubility at tested concentrations,[1]; tested concentration 1.9 mM,not soluble
same,remaining activity at 1900 µM,[2],52%
CCc1c(C)[nH]c(=O)c(C(=O)O)c1C#N [Compound 8020-6317],Solubility at tested concentrations,[1]; [4],not soluble
N#Cc1c2c([nH]c(=O)c1C(=O)O)CCCC2 [Compound 8020-6318],Solubility at tested concentrations,[3]; tested concentration 2.3 mM,not soluble
same,remaining activity at 2300 µM,[2]; residual activity,93%
Cc1cccc(CNC(=O)c2ccc3cccc(O)c3n2)c1 [Compound C066-5543],Solubility at tested concentrations,[3]; tested concentration 1.7 mM,not soluble
same,remaining activity at 1700 µM,[2]; residual activity,94%
O=C(O)c1nccnc1C(=O)Nc1cccc(Cl)c1 [Compound C612-0847],Solubility at tested concentrations,[3]; tested concentration 1.8 mM,not soluble
same,remaining activity at 1800 µM,[2]; residual activity,52%
O=C(O)c1nccnc1C(=O)Nc1ccc([N+](=O)[O-])cc1 [Compound C612-1047],Solubility at tested concentrations,[1]; tested concentration 1.7 mM,not soluble
same,remaining activity at 1700 µM,[2],38%
CCOc1ccc2c(c1)cc(C(=O)NC)n2C [Compound D291-1849],Solubility at tested concentrations,[3]; tested concentration 2.6 mM,not soluble
same,remaining activity at 2600 µM,[2]; tested concentration 2.6 mM,95%
O=S(=O)(c1c[nH]cn1)N1CCCC1c1cccc(F)c1 (stereo not shown) [Compound D399-0575],Solubility at tested concentrations,[1]; [4],not soluble
CC1CCN(S(=O)(=O)c2cnc(O)[nH]c2=O)CC1 [Compound D668-0109],Solubility at tested concentrations,[3]; tested concentration 1.8 mM,not soluble
same,remaining activity at 1800 µM,[2]; residual activity,97%
COc1ccc(-c2ccc(C(=O)O)c(=O)[nH]2)cc1 [Compound D724-1039],Solubility at tested concentrations,[3]; tested concentration 2.0 mM,not soluble
same,remaining activity at 2000 µM,[2]; residual activity,76%
O=C(O)c1ccc(-c2ccccc2)nc1O [Compound D724-1054],Solubility at tested concentrations,[1]; [4],not soluble
CC1=C(c2cccc(Cl)c2)S(=O)(=O)N=C1NC(C)C [Compound E013-2266],Solubility at tested concentrations,[1]; [4],not soluble
COCCNc1c(-c2ccc(C)cc2)c(=O)c1=O [Compound E470-0131],Solubility at tested concentrations,[3]; tested concentration 2.0 mM,not soluble
same,remaining activity at 2000 µM,[2],78%
Cc1ccc(-c2c(N(C)c3ccc(C)cc3)c(=O)c2=O)cc1 [Compound E470-0191],Solubility at tested concentrations,[1]; tested concentration 1.7 mM,not soluble
same,remaining activity at 1700 µM,[2],73%
CC1CCN(c2c(-c3ccccc3)c(=O)c2=O)CC1 [Compound E470-0346],Solubility at tested concentrations,[1]; tested concentration 2.0 mM,not soluble
same,remaining activity at 2000 µM,[2],98%
O=c1c(NCC2CCCO2)c(-c2ccccc2)c1=O (stereo not shown) [Compound E470-0384],Solubility at tested concentrations,[1]; tested concentration 1.9 mM,not soluble
same,remaining activity at 1900 µM,[2],81%
CCC(C)(C)Nc1c(-c2ccccc2)c(=O)c1=O [Compound E470-0411],Solubility at tested concentrations,[3]; tested concentration 2.1 mM,not soluble
same,remaining activity at 2100 µM,[2],48%
CC1Cc2ccccc2N1c1c(-c2ccccc2)c(=O)c1=O (stereo not shown) [Compound E470-0446],Solubility at tested concentrations,[1]; tested concentration 1.7 mM,not soluble
same,remaining activity at 1700 µM,[2],2.16%
COc1ccccc1NC(=O)NC1COc2ccccc2C1 (stereo not shown) [Compound G765-0207],Solubility at tested concentrations,[1]; [4],not soluble
O=C(NC1CCCCC1)c1ccc2cccc(O)c2n1 [Compound G900-0104],Solubility at tested concentrations,[3]; tested concentration 1.8 mM,not soluble
same,remaining activity at 1800 µM,[2]; residual activity,80%
CCc1cccc(NC(=O)c2ccc3cccc(O)c3n2)c1 [Compound G900-0169],Solubility at tested concentrations,[3]; tested concentration 1.7 mM,not soluble
same,remaining activity at 1700 µM,[2],69%
Cc1cc(C)cc(NC(=O)c2ccc3cccc(O)c3n2)c1 [Compound G900-0230],Solubility at tested concentrations,[3]; tested concentration 1.7 mM,not soluble
same,remaining activity at 1700 µM,[2],92%
Cc1cc(C2CCCN2Cc2ccccc2O)on1 (stereo not shown) [Compound J006-2498],Solubility at tested concentrations,[3]; tested concentration 2.3 mM,not soluble
same,remaining activity at 2300 µM,[2],90%
O=C(Cc1c[nH]c2ncccc12)NCC1CCCCC1 [Compound M508-0609],Solubility at tested concentrations,[3]; tested concentration 1.8 mM,not soluble
same,remaining activity at 1800 µM,[2]; residual activity,92%
Oc1cc(-c2ccccc2)cc2c1nnc1ncnn12 [Compound Y021-2954],Solubility at tested concentrations,[3]; tested concentration 1.9 mM,not soluble
same,remaining activity at 1900 µM,[2]; residual activity,79%
Oc1cccc2c1nnc1nc(-c3cccnc3)nn12 [Compound Y021-2955],Solubility at tested concentrations,[3]; tested concentration 1.9 mM,not soluble
same,remaining activity at 1900 µM,[2]; residual activity,45%
Cc1cc(C)c(S(=O)(=O)N(C)C2CCCCC2)c(C)c1 [Compound Y030-0169],Solubility at tested concentrations,[1]; [4],not soluble
O=C(O)c1cnc2c(OC(F)(F)F)cccc2c1O [Compound Y042-3118],Solubility at tested concentrations,[3]; tested concentration 1.8 mM,not soluble
same,remaining activity at 1800 µM,[2]; residual activity,88%
CC(C)c1ccc(C(=O)Nc2nnc[nH]2)cc1 [Compound Y200-5752],Solubility at tested concentrations,[3]; tested concentration 2.2 mM,not soluble
same,remaining activity at 2200 µM,[2]; residual activity,52%
Cc1ccc(CS(=O)(=O)N2CCCCC2)cc1 [Compound Y300-3037],Solubility at tested concentrations,[3]; tested concentration 2.4 mM,not soluble
same,remaining activity at 2400 µM,[2]; tested concentration 2.4 mM,88%
c1ccc(-c2nnc(CC34CC5CC(CC(C5)C3)C4)o2)nc1 [Compound Y502-6922],Solubility at tested concentrations,[1]; [4],not soluble
Cc1cc(N)nn1CC(=O)O [Compound Y504-8763],Solubility at tested concentrations,[3]; tested concentration 3.2 mM,not soluble
same,remaining activity at 3200 µM,[2]; tested concentration 3.2 mM,57%
